Reference: US20230373930A1, “AMINOIMIDAZOLE FPR2 AGONISTS” (BRISTOL-MYERS SQUIBB COMPANY, priority 2020, published 2023)

Tests used:
human FPR2 = target: T1, human FPR2 (Homo sapiens, UniProt P25090); test: FPR2 cyclic adenosine monophosphate (cAMP) assay; assay type: cell-based; settings: CHO cells overexpressing human FPR2; forskolin 5 μM; inhibition of cAMP production; HTRF; read-out: hFPR2 cAMP2 EC50
T1 sequence (P25090 1-351): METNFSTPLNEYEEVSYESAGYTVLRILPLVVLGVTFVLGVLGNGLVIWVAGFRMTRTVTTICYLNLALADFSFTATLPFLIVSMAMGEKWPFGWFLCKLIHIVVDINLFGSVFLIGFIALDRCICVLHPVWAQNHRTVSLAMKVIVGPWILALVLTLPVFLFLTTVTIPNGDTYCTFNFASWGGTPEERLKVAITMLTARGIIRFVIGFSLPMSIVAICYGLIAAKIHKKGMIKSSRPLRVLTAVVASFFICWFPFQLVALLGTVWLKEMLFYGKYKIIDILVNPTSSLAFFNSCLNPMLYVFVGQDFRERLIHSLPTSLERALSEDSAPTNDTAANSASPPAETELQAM
Experimental: (§1) FPR2 and FPR1 Cyclic Adenosine Monophosphate (cAMP) Assays. A mixture of forskolin (5 μM final for FPR2 or 10 μM final for FPR1) and IBMX (200 μM final) were added to 384-well Proxiplates (Perkin-Elmer) pre-dotted with test compounds in DMSO (1% final) at final concentrations in the range of 0.020 nM to 100 μM. Chinese Hamster Ovary cells (CHO) overexpressing human FPR1 or human FPR2 receptors were cultured in F-12 (Ham's) medium supplemented with 10% qualified FBS, 250 μg/ml zeocin and 300 μg/ml hygromycin (Life Technologies). Reactions were initiated by adding 2,000 human FPR2 cells per well or 4,000 human FPR1 cells per well in Dulbecco's PBS (with calcium and magnesium) (Life Technologies) supplemented with 0.1% BSA (Perkin-Elmer). The reaction mixtures were incubated for 30 min at room temperature. The level of intracellular cAMP was determined using the HTRF HiRange cAMP assay reagent kit (Cisbio) according to manufacturer's instruction. Solutions of cryptate conjugated anti-cAMP and d2 flurorophore-labelled cAMP were made in a supplied lysis buffer separately. Upon completion of the reaction, the cells were lysed with equal volume of the d2-cAMP solution and anti-cAMP solution. After a 1-h room temperature incubation, time-resolved fluorescence intensity was measured using the Envision (Perkin-Elmer) at 400 nm excitation and dual emission at 590 nm and 665 nm. A calibration curve was constructed with an external cAMP standard at concentrations ranging from 1 μM to 0.1 μM by plotting the fluorescent intensity ratio from 665 nm emission to the intensity from the 590 nm emission against cAMP concentrations. The potency and activity of a compound to inhibit cAMP production was then determined by fitting to a 4-parametric logistic equation from a plot of cAMP level versus compound concentrations.

human FPR1 = target: T2, human FPR1 (Homo sapiens, UniProt P21462); test: FPR1 cyclic adenosine monophosphate (cAMP) assay; assay type: cell-based; settings: CHO cells overexpressing human FPR1; forskolin 10 μM; inhibition of cAMP production; HTRF; read-out: hFPR1 cAMP2 EC50
T2 sequence (P21462 1-350): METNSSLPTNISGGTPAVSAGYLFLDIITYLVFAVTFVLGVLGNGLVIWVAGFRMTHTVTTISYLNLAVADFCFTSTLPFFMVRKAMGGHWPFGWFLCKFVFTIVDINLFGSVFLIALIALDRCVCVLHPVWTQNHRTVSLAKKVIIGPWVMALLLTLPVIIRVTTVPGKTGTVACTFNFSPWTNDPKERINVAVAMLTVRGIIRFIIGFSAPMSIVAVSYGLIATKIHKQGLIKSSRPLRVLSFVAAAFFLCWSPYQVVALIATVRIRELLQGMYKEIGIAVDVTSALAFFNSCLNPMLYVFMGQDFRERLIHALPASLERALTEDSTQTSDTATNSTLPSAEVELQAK
Experimental: as §1

Compound	EC50 (human FPR2) [nM]	EC50 (human FPR1) [nM]
COc1ccc(-n2cc(-c3nc4ccccc4s3)nc2NC(=O)c2ccc(OC(F)F)cc2)cc1 [Example 23, N-[4-(1,3-Benzothiazol-2-yl)-1-(4-methoxyphenyl)-1H-imidazol-2-yl]-4-(difluoromethoxy)benzamide]	28	44
COc1ccc(-n2cc(C3CCCNC3)nc2NC(=O)c2ccc(OC(F)F)cc2)cc1 (stereo not drawn) [Example 64, 4-(Difluoromethoxy)-N-[1-(4-methoxyphenyl)-4-(piperidin-3-yl)-1H-imidazol-2-yl]benzamide]	11	210
COc1cc(F)c(-n2cc(C(=O)NCCCO)nc2NC(=O)c2ccc(OC(F)F)cc2)c(F)c1 [Example 60, 1-(2,6-Difluoro-4-methoxyphenyl)-2-[4-(difluoromethoxy)benzamido]-N-(3-hydroxypropyl)-1H-imidazole-4-carboxamide]	56	1400
COc1cc(F)c(-n2cc(-c3ccc(C(F)(F)F)cc3)nc2NC(=O)c2ccc(OC(F)F)cc2)c(F)c1 [Example 6, N-[1-(2,6-Difluoro-4-methoxyphenyl)-4-[4-(trifluoromethyl)phenyl]-1H-imidazol-2-yl]-4-(difluoromethoxy)benzamide]	76	120
COc1ccc(-n2cc(-c3ccccn3)nc2NC(=O)c2ccc(OC(F)F)cc2)cc1 [Example 28, 4-(Difluoromethoxy)-N-[1-(4-methoxyphenyl)-4-(pyridin-2-yl)-1H-imidazol-2-yl]benzamide]	700	1030
COc1cc(F)c(-n2cc(-c3ccc(F)c(F)c3)nc2NC(=O)c2ccc(OC(F)F)cc2)c(F)c1 [Example 36, N-[1-(2,6-Difluoro-4-methoxyphenyl)-4-(3,4-difluorophenyl)-1H-imidazol-2-yl]-4-(difluoromethoxy)benzamide]	31	320
COc1ccc(-n2cc(-c3ccc(F)cc3F)nc2NC(=O)c2ccc(OC(F)F)cc2)cc1 [Example 21, 4-(Difluoromethoxy)-N-[4-(2,4-difluorophenyl)-1-(4-methoxyphenyl)-1H-imidazol-2-yl]benzamide]	29	76
COc1cc(F)c(-n2cc(C(=O)Nc3cn[nH]c3)nc2NC(=O)c2ccc(OC(F)F)cc2)c(F)c1 [Example 62, 1-(2,6-Difluoro-4-methoxyphenyl)-2-[4-(difluoromethoxy)benzamido]-N-(1H-pyrazol-4-yl)-1H-imidazole-4-carboxamide]	32	830
COc1ccc(-n2cc(C(=O)NCCCO)nc2NC(=O)c2ccc(OC(F)F)cc2)cc1 [Example 46, 2-[4-(Difluoromethoxy)benzamido]-N-(3-hydroxypropyl)-1-(4-methoxyphenyl)-1H-imidazole-4-carboxamide]	27	210
COc1ccc(-n2cc(C34CC5CC(CC(C5)C3)C4)nc2NC(=O)c2ccc(OC(F)F)cc2)cc1 [Example 31, N-[4-(Adamantan-1-yl)-1-(4-methoxyphenyl)-1H-imidazol-2-yl]-4-(difluoromethoxy)benzamide]	320	> 10000
COc1ccc(-n2cc(C(F)(F)F)nc2NC(=O)c2ccc(OC(F)F)cc2)cc1 [Example 43, 4-(Difluoromethoxy)-N-[1-(4-methoxyphenyl)-4-(trifluoromethyl)-1H-imidazol-2-yl]benzamide]	10	40
COc1ccc(-c2cn(-c3c(F)cc(OC)cc3F)c(NC(=O)c3ccc(OC(F)F)cc3)n2)cc1 [Example 14, N-[1-(2,6-Difluoro-4-methoxyphenyl)-4-(4-methoxyphenyl)-1H-imidazol-2-yl]-4-(difluoromethoxy)benzamide]	39	160
COc1ccc(-n2cc(-c3ccc4sccc4c3)nc2NC(=O)c2ccc(OC(F)F)cc2)cc1 [Example 22, N-[4-(1-Benzothiophen-5-yl)-1-(4-methoxyphenyl)-1H-imidazol-2-yl]-4-(difluoromethoxy)benzamide]	86	140

Second part, the compound after the results:

EC50 (human FPR2) [nM]	EC50 (human FPR1) [nM]	Compound
130	4100	COc1cc(F)c(-n2cc(C(=O)NCCO)nc2NC(=O)c2ccc(OC(F)F)cc2)c(F)c1 [Example 53, 1-(2,6-Difluoro-4-methoxyphenyl)-2-[4-(difluoromethoxy)benzamido]-N-(2-hydroxyethyl)-1H-imidazole-4-carboxamide]
28	540	CCNC(=O)N1CCC(c2cn(-c3c(F)cc(OC)cc3F)c(NC(=O)c3ccc(OC(F)F)cc3)n2)CC1 [Example 66, 4-[1-(2,6-Difluoro-4-methoxyphenyl)-2-[4-(difluoromethoxy)benzamido]-1H-imidazol-4-yl]-N-ethylpiperidine-1-carboxamide]
39	940	COc1cc(F)c(-n2cc(-c3ccccc3F)nc2NC(=O)c2ccc(OC(F)F)cc2)c(F)c1 [Example 33, N-[1-(2,6-Difluoro-4-methoxyphenyl)-4-(2-fluorophenyl)-1H-imidazol-2-yl]-4-(difluoromethoxy)benzamide]
15	450	COc1cc(F)c(-n2cc(-c3cccc(Cl)c3)nc2NC(=O)c2ccc(OC(F)F)cc2)c(F)c1 [Example 12, N-[4-(3-Chlorophenyl)-1-(2,6-difluoro-4-methoxyphenyl)-1H-imidazol-2-yl]-4-(difluoromethoxy)benzamide]
90	750	COc1cc(F)c(-n2cc(C(=O)NC3CCC(O)CC3)nc2NC(=O)c2ccc(OC(F)F)cc2)c(F)c1 (stereo not drawn) [Example 49, 1-(2,6-Difluoro-4-methoxyphenyl)-2-[4-(difluoromethoxy)benzamido]-N-(4-hydroxycyclohexyl)-1H-imidazole-4-carboxamide]
280	> 10000	COc1cc(F)c(-n2cc(C(=O)N3CCN(C)CC3)nc2NC(=O)c2ccc(OC(F)F)cc2)c(F)c1 [Example 55, N-[1-(2,6-Difluoro-4-methoxyphenyl)-4-(4-methylpiperazine-1-carbonyl)-1H-imidazol-2-yl]-4-(difluoromethoxy)benzamide]
23	> 10000	COc1cc(F)c(-n2cc(C3CC4(CNC4)C3)nc2NC(=O)c2ccc(OC(F)F)cc2)c(F)c1 [Example 75, N-(1-(2,6-Difluoro-4-methoxyphenyl)-4-(2-azaspiro[3.3]heptan-6-yl)-1H-imidazol-2-yl)-4-(difluoromethoxy)benzamide]
4	5400	COc1cc(F)c(-n2cc(C3CC(N)C3)nc2NC(=O)c2ccc(OC(F)F)cc2)c(F)c1 (stereo not drawn) [Example 81, N-[4-(3-aminocyclobutyl)-1-(2,6-difluoro-4-methoxyphenyl)-1H-imidazol-2-yl]-4-(difluoromethoxy)benzamide]
10	240	COc1cc(F)c(-n2cc(C3CCC(O)CC3)nc2NC(=O)c2ccc(OC(F)F)cc2)c(F)c1 (stereo not drawn) [Example 76, N-(1-(2,6-Difluoro-4-methoxyphenyl)-4-(4-hydroxycyclohexyl)-1H-imidazol-2-yl)-4-(difluoromethoxy)benzamide]
130	> 10000	COc1cc(F)c(-n2cc(C(=O)N3CCNCC3)nc2NC(=O)c2ccc(OC(F)F)cc2)c(F)c1 [Example 61, N-[1-(2,6-Difluoro-4-methoxyphenyl)-4-(piperazine-1-carbonyl)-1H-imidazol-2-yl]-4-(difluoromethoxy)benzamide]
21	1000	CCc1cn(-c2c(F)cc(OC)cc2F)c(NC(=O)c2ccc(OC(F)F)cc2)n1 [Example 39, N-[1-(2,6-Difluoro-4-methoxyphenyl)-4-ehtyl-1H-imidazol-2-yl]-4-(difluoromethoxy)benzamide]
